# Measurements from patent US8372810B2, “Anti-tumor drug, medicament, composition, and use thereof” (Gene Signal International SA, priority 2007, dated 2013).
# Several values for one entry are separate records, joined by “and”; a condition that tells them apart may be missing. Equal values may be shown once. Entries after “also recorded” stand apart in the source; their conditions may differ.
# How the values were obtained:
# [1] = system: HUVEC; experiment: Wound assay, migration of human endothelial cells; assay type: cell-based; conditions: 18 hours; 497C-T2 0.83 and 1.66 μM; 497C-T3 2.4 μM; 497C-T4 3.52 μM; 497C-T5 3.65 μM; C-terminal tail 4.92 μM
# Experimental: Cell migration was tested by the wound assay described by Sato and Rifkin (J Cell Biol. 1988; 107:1199) with few modifications. HUVEC grown in growth medium EGM-2MV (Cambrex) were seeded in 24-well plates at 80 000 cells per well in 500 μL of growth medium and grown to confluence at 37° C. in a humidified atmosphere containing 5% CO2. Cells were scrapped with a plastic tip on one line only. After wounding, the culture medium was changed for fresh medium (control, FIG. 3a) or fresh medium supplemented with: • FIG. 3b: 497C-T2 20 μg/mL (0.83 μM) • FIG. 3c: 497C-T2 40 μg/mL (1.66 μM) • FIG. 3d: 497C-T3 48 μg/mL (2.4 μM) • FIG. 3e: 497C-T4 60 μg/mL (3.52 μM) • FIG. 3f: 497C-T5 61 μg/mL (3.65 μM) • FIG. 3g: C-terminal tail 63 μg/mL (4.92 μM)
# After 18 hours of culture, cells were observed and photographed under the inverted microscope (Analysis, Olympus, Rungis, France).
# [2] = system: CALU-6 tumors; experiment: CALU-6 non-small cell lung cancer xenograft in Swiss Nude mice, tumor growth; assay type: in vivo; conditions: IP Q2DX8, CDDP 5 mg/kg (G2), 497C-T2 10 mg/kg (G3), 497C-T2 10 mg/kg + CDDP 5 mg/kg (G4)
# Experimental: CALU-6 cells were cultured as adherent cells in complete EMEM medium (Ref. CM1MEM18-01, batch No. 462502, Eurobio, France) 10% fetal calf serum (FCS; Ref. CVFSVF00-01, batch No. 513021, Eurobio, France) under a 37° C., 5% CO2 humidified atmosphere. They were amplified in 75 cm^2-flasks to reach 90×10^6 cells.
# At D0, CALU-6 cells (human lung carcinoma) were collected from 75 cm^2-flasks by removing the medium and adding 3 ml of trypsine-EDTA (Ref. CEZTDA00-0U, batch No. 633920, Eurobio, France). After 5 min of incubation at 37° C., cells had detached from the plastic and the enzymatic reaction was stopped by adding 3 ml of EMEM medium containing 10% fetal calf serum. Cells were then centrifuged at 700 g for 5 min at room temperature. They were resuspended in serum-free EMEM culture medium. Cells were counted and viability assessment by Trypan Blue exclusion (Ref. CSTCOL03-OU, batch No. 434511, Eurobio, France). The number of viable CALU-6 cells was >99%. The number of cells was then adjusted to 25×10^6 cells/ml in serum-free medium.
# CALU-6 cells 5×10^6 cells/mouse in 200 μl of serum-free medium) were then implanted subcutaneously in the right flank of each mouse.
# At D12 post-implantation of the CALU-6 cells, the thirty mice were randomized into six groups of 5 mice. Tumor volumes had reached 228 to 468 mm^3 and mean tumor volumes were not statistically different between groups after randomization.
# Mean tumor volumes (MTV), mean relative tumor volume (MRTV) and tumor growth inhibition (T/C) were calculated as for example 7.
# [3] = system: NCI H460 human tumor; experiment: NCI H460 human tumor xenograft in Swiss Nude mice, tumor growth; assay type: in vivo; design: key to MRTV D28 / MRTV D12 / MRTV D14 / MRTV D16 / MRTV D18 / MRTV D20 / MRTV D22 / MRTV D24 / MRTV D26: ratio of mean tumor volume at day t to volume at injection (D12)
# Experimental: NCI H460 cells were cultured as adherent cells in complete RPMI 1640 medium (Ref. CM1RRM08-01, batch No. 623615, Eurobio, France) containing 2 mM L-Glutamine, adjusted to 4.5 g/L glucose (Ref. G7528, batch No. 033K0121, Sigma, France) and supplemented with 10 mM HEPES (Ref. H0887, batch No. 113K2338, Sigma, France), 1.0 mM sodium pyruvate (Ref. CSTVAT00-0U, batch No. 520818, Sigma, France) and 10% fetal calf serum (FCS; Ref. CVFSVF00-01, batch No. S13021, Eurobio, France) under a 37° C., 5% CO2 humidified atmosphere. They were amplified in 75 cm^2-flasks to reach 90×10^6 cells.
# At D0, NCI H460 cells (human lung carcinoma) were collected from 75 cm^2-flasks by removing the medium and adding 3 ml of trypsine-EDTA (Ref. CEZTDA00-0U, batch No. 633920, Eurobio, France). After 5 min of incubation at 37° C., cells were detached from the plastic and the enzymatic reaction was stopped by adding 3 ml of RPMI 1640 medium containing 10% fetal calf serum. Cells were then centrifuged at 700 g for 5 min at room temperature. They were resuspended in serum-free RPMI 1640 culture medium containing L-Glutamine (2 mM), glucose (4.5 g/l), sodium pyruvate (1 mM) and buffered with HEPES (10 mM). Cells were counted and the number of viable NCI H460 cells was >99%. The number of cells was then adjusted to 25.10^6 cells/ml in serum-free medium.
# NCI H460 cells (5.10^6 cells/mouse in 200 μL of serum-free medium) were then implanted subcutaneously in the right flank of each mouse.
# At D12 post-implantation of the NCI H460 cells, the thirty mice were randomized into six groups of 5 mice. Tumor volumes had reached 228 to 468 mm^3 and mean tumor volumes were not statistically different between groups after randomization.
# All solutions were injected IP.
# Animals have been observed daily.
# • Tumor growth curves were drawn using the mean tumor volumes (MTV), • Mean Relative tumor volume (MRTV) was calculated as the ratio between the MTV at time t and the volume at the time of injection (t=D12), • Tumor growth inhibition (T/C, %) was evaluated as the ratio of the median tumor volumes of treated groups versus vehicle group.
# Statistical analyses of tumor volumes (V), time to reach ‘V’, tumor-doubling time (DT), relative tumor volume (RTV) and tumor growth inhibition (T/C) were performed for all groups. Data are expressed as mean±SD. Groups of data were normally distributed. Univariate analysis were performed to assess differences between groups. Statistical significance was then determined using the Student's t test. A P<0.05 was considered as statistically significant. The Statistical analysis was performed using XLSTAT (Addinsoft, France).
# [4] = IP Q2DX8, CDDP 5 mg/kg (G2), 497C-T2 10 mg/kg (G3), 497C-T2 10 mg/kg + CDDP 5 mg/kg (G5)
molecule,measurement,setting,value
"497C-T4: d1, d2 and e domains of the LEL domain of protein 497C, SEQ ID NO:5 (49 amino acids) (IPPSCCMNETDCNPQDLHNLTVAATKVNQKGCYDLVTSFMETNMGIIAG; listed as Homo sapiens)",inhibition of endothelial cell migration,[1],less active than 497C-T2; also recorded: limited activities relative to that of 497C-T2
"497C-T5: d2 and e domains of the LEL domain of protein 497C, SEQ ID NO:6 (43 amino acids) (MNETDCNPQDLHNLTVAATKVNQKGCYDLVTSFMETNMGIIAG; listed as Homo sapiens)",inhibition of endothelial cell migration,[1],very limited anti-migratory activity; also recorded: limited activities relative to that of 497C-T2
"N.N.[Cl][Pt][Cl] [Cisplatin, cis-diamineplatinum (II) dichloride, reference compound]",MRTV D14,[2],3.11
same,MRTV D16,[2],2.39
same,MRTV D18,[2],2.66
same,MRTV D20,[2],3.08
same,MRTV D22,[2],3.70
same,MRTV D24,[2],4.84
same,MRTV D26,[2],4.11
same,MRTV D28,[2],5.98
same,MTV at D28,[2],742.44±215.85 mm^3
same,MRTV D12,[2]; reference day,1
same,reduction of tumor size compared to the vehicle-treated group 1,"[3]; D28, CDDP 5 mg/kg IP Q2DX8 (G2)",68%
same,DT (doubling time of tumor volume),[3]; [4],5.12 ± 2.89 days and 5.12 days
same,MRTV D14,[3]; [4],1.59
same,MRTV D16,[3]; [4],1.74
same,MRTV D18,[3]; [4],2.30
same,MRTV D20,[3]; [4],2.29
same,MRTV D22,[3]; [4],3.39
same,MRTV D24,[3]; [4],3.67
same,MRTV D26,[3]; [4],3.67
same,MRTV D28,[3]; [4],4.88
same,MTV at D14,[3]; [4],513.35 mm^3
same,MTV at D24,[3]; [4],1083.74 mm^3
same,MTV at D28,[3]; [4],1440±1097 mm^3 and 1440.18 mm^3
same,MRTV D12,"[3]; reference day, IP Q2DX8, CDDP 5 mg/kg (G2), 497C-T2 10 mg/kg (G3), 497C-T2 10 mg/kg + CDDP 5 mg/kg (G5)",1.00
"497C-T3: c, d1, d2 and e domains of the LEL domain of protein 497C, SEQ ID NO:4 (74 amino acids) (protein, listed as Homo sapiens) QRSLSCCGVQNYTNWSTSPYFLEHGIPPSCCMNETDCNPQDLHNLTVAATKVNQKGCYDLVTSFMETNMGIIAG",inhibition of endothelial cell migration,[1],inhibited cell migration similarly to the protein 497C-T2; also recorded: almost as potent than 497C-T2
